Measurements published in PMC12562324, “Surfactin Structural Variants Differentially Modulate Plant Immune Responses” (Biomolecules, 2025).

How the values were obtained:
MYB72 = test: Coumarin pathway reporter line pMYB72:GFP-GUS; format: cell-based, Arabidopsis thaliana; conditions: 10 µM Srf, 20 min post treatment, vs mock; n = 9 from three independent experiments; p < 0.05; Figure 6A
Protocol: (§1) Seedlings of the Arabidopsis thaliana reporter lines pMYB72:GFP-GUS and pBGLU42:GFP-GUS were germinated and cultivated for seven days under the aforementioned conditions. Uniform plantlets were then transferred to 96-well optical bottom black microplates (Greiner 96 µClear, Thermo Fisher Scientific, Hampton, VA, USA). Each well contained 150 µL of the hydroponic solution. Following transfer, the microplates were sealed and incubated in a growth chamber under controlled conditions (22 °C with a 12 h photoperiod). On the fifth day of this incubation, the plates were treated by adding 150 µL of either the CLP solution or a mock control to each well. Fluorescence measurements were subsequently acquired using a Spark microplate reader and configured with an excitation wavelength of 485 nm and an emission wavelength of 530 nm. Data were collected with nine measurement points acquired per well to ensure robustness.

BGLU42 = test: Coumarin pathway reporter line pBGLU42:GFP-GUS; format: cell-based, Arabidopsis thaliana; conditions: 10 µM Srf, 20 min post treatment, vs mock; n = 12 from three independent experiments; p < 0.05; Figure 6B
Protocol: as §1

[1] = test system: Arabidopsis thaliana nia1nia2 double mutant roots; test: Srf-induced NO in nitrate reductase double mutant roots; format: cell-based; conditions: fluorescence 40 min after Srf treatment, compared with Col-0; n = 12 from three independent experiments; Figure 3D
Protocol: For the detection of intracellular NO, roots were processed as described above and 200 µL sterile water was replaced by 200 µL 5 μM DAF-DA in a buffered solution (10 mM Tris/HCl, pH = 7.4). Roots were incubated at room temperature for 1 h in the absence of light and then washed 3 times with Tris/HCl (10 mM, pH = 7.4). The fluorescence emitted by DAF-DA was detected by excitation at 495 nm and emission at 515 nm. Experiments where NO was measured after pretreatment with the calcium channel blocker or calcium chelator included an additional step where LaCl3 (10 mM; Merck Chemicals SA, Hoeilaart, Belgium) or EGTA (1 mM; Merck Chemicals SA, Hoeilaart, Belgium) was added three minutes before treatments. Data were processed as described above for ROS. For NO measurements in protoplasts, the suspension was incubated in the same conditions before being distributed (50 µL) in microplate wells and treated with the CLPs at a 10 µM final concentration or with 0.1% DMSO as a mock.

root tissues = conditions: previous results; cited from earlier work
Source text: Early immune responses associated with PTI include the rapid accumulation of extracellular ROS in the apoplast, generated mainly by the plasma membrane-located NADPH oxidase RBOHD or by cell wall peroxidases. Cytoplasmic hydrogen peroxide ([ROS]intra) production also emerges as an early defense response and could originate from various organelles, as reported for ETI, or in response to abiotic stresses or other small microbial compounds [9, 36, 37].

Substance: surfactin [Srf]
- MYB72 expression in roots of reporter line (GFP fluorescence) (MYB72): significant upregulation
- BGLU42 expression in roots of reporter line (GFP fluorescence) (BGLU42): significant upregulation
- NO production in nia1nia2 double mutant roots [1]: fully conserved induction of NO production
- Burst in extracellular ROS in root tissues (root tissues): not a burst in extracellular ROS
- [ROS]intra production in root tissues (root tissues): triggers [ROS]intra production
